The target in data set [1] is T1, α-glucosidase (from Saccharomyces cerevisiae EC 3.2.1.20) (Saccharomyces cerevisiae, UniProt P53341).
T1 construct: purchased Sigma
The data set is described as follows: biochemical. Here is the method:
The method described by Azizian et al. with some modifications was used to assess αglucosidase inhibitory activity of novel derivatives of phenyl carbamoyl methoxy thiosemicarbazone. The enzyme solution was prepared of αglucosidase (1 U/mL) in a […] phosphate buffer (pH: 6.8). The final volume of assay solution in the 96-well plate was 200 µl, which was prepared in the following order: 20 µl of the enzyme solution was used to obtain a final enzyme activity of […] per well. 20 µl of various concentrations of novel inhibitors (1000, 500, 250, 125, 62.5, 31.25, and 15.62 µM) and potassium phosphate buffer (135 µl, pH = 6.8). The 96-well plate was incubated for 10 min at 37 °C and pNPG as substrate (25 µl, 4 mM) was added to each well of the plate and was incubated again for 30 min at 37 °C. Finally, absorbance was measured at 405 nm using a spectrophotometer (BioTek ELx808, USA). […] The IC50 values for the tested inhibitors were calculated using Microsoft Excel 2016 software and non-linear regression analysis.

Data set [2] is described as follows: MTT cytotoxicity assay on MDA-MB-453 cells. Format: cell-based, human. The note with it: human, MDA-MB-453 cells (breast cancer cell line), 24 h, MTT, read-out: cell survival rate / cell viability; for viability at 24 h, 12.5 µM: MDA-MB-453, 12.5 µM; for viability at 24 h, 25 µM: MDA-MB-453, 25 µM; for viability at 24 h, 50 µM: MDA-MB-453, 50 µM; for viability at 24 h, 100 µM: MDA-MB-453, 100 µM. As for the experimental part: (§1) To evaluate the cytotoxic effects of novel derivatives of phenyl carbamoyl methoxy thiosemicarbazone, an MTT assay was conducted using the non-small cell lung carcinoma cell line A549 and the MDA-MB-453 human breast cancer cell line. Both cell lines were obtained from the Pasteur Institute in Iran, and the assay was performed following the method of Jelena et al.[15], with some minor modifications.
(§2) In short, 100 µl of A549 cells (1 × 10^5) cultured in DMEM (Dulbecco’s modified Eagle’s medium) enriched with 10% foetal bovine serum (FBS) and 100 U/mL penicillin. […] streptomycin were added to each well in a 96-well plate, and they were incubated at 37 °C and 5% CO2 for 24 h. Also, 100 µl of MDA-MB-453 cells (1 × 10^5) cultured in RPMI enriched with 10% FBS and 100 U/mL penicillin and […] streptomycin were added to each well in a 96-well plate and were incubated at 37 °C and 5% CO2 for 24 h. Subsequently, the medium in both cell lines was replaced with different concentrations (12.5, 25, 50, and 100 µM) of two derivatives of 7e and 7 g, and plates were incubated at 37 °C and 5% CO2 for 24 h. After that, 10 µl of MTT (3–4, 5 dimethyl thiazol- 2 yl)-2, 5- diphenyl tetrazolium bromide) (Sigma USA) dye ([…] in PBS) was added to each well and incubated for 4 h at 37 °C. After 4 h, the solution was removed from the cells, and 100 µl of DMSO (dimethyl sulfoxide) was added to the wells. The optical density of each well was measured at 570 nm using an ELISA reader (BioTek ELx808, USA). The wells containing more cells have a higher optical density (OD) than those with fewer cells. Therefore, the wells with more cells can be identified using the following equation and compared with the control sample. Toxicity%=1−mean OD of sample/mean OD of control∗100 viability%=100−Toxicity %
(§3) PBS buffer and 1% Triton X-100 were negative and positive controls, respectively. All tests were conducted in triplicate.

The nature of data set [3]: MTT cytotoxicity assay on A549 cells. The note with it: human, A549 cells (non-small cell lung carcinoma cell line), 24 h, MTT, read-out: cell viability rate; for viability at 24 h, 12.5 µM: A549, 12.5 µM; for viability at 24 h, 25 µM: A549, 25 µM; for viability at 24 h, 50 µM: A549, 50 µM; for viability at 24 h, 100 µM: A549, 100 µM. In kind it is cell-based. As for the experimental part: as §1, §2, §3
(In general: Formazan colour is commonly taken as a measure of viable cells.)

The test system of data set [4] is MDA-MB-453 human breast cancer cell line. The data set is described as follows: MTT cytotoxicity assay on MDA-MB-453 cells. Format: cell-based. The note with it: MDA-MB-453. As for the experimental part: as §1, §2, §3
Data set [5] relates to non-small cell lung carcinoma cell line A549. The data set is described as follows: MTT cytotoxicity assay on A549 cells. Format: cell-based. To be noted: A549. As for the experimental part:
as §1, §2, §3

In data set [6] the target is T2, α-glucosidase (Saccharomyces cerevisiae, UniProt P53341).
T2 construct: purchased Sigma
T2 sequence (P53341 whole entry): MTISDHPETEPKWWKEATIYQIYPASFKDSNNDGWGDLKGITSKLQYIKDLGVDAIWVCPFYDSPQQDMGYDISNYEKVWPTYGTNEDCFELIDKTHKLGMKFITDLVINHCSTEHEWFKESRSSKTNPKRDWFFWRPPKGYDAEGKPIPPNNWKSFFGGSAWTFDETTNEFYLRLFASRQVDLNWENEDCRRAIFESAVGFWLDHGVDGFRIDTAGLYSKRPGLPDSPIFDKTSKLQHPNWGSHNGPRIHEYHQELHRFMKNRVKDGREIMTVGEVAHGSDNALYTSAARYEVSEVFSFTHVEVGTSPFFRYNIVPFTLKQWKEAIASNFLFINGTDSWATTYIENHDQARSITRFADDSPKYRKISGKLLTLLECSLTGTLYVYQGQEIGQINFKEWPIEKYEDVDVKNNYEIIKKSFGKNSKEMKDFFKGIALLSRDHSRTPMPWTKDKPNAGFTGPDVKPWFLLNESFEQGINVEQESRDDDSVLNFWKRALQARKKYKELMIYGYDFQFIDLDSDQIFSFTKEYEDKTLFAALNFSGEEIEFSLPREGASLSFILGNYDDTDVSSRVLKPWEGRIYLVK
Description: Kinetic study of α-glucosidase inhibition (Lineweaver-Burk and secondary plots). Format: biochemical. As for the experimental part: Kinetic studies were conducted to determine the inhibition mechanism of the strongest novel inhibitor with the lowest IC50. […] The experimental inhibitor constant[42] was made using secondary plots.
This was achieved using Lineweaver–Burk plots to determine the type of inhibition mechanism and the Km value. […] This mode of inhibition is particularly advantageous for antidiabetic therapy, as it facilitates glucose-dependent modulation of enzyme activity. […] These attributes highlight the promise of 7e as a therapeutic agent for managing postprandial glucose levels in individuals with type 2 DM.

Setting [7] is: pNPG substrate, pH 6.8, 37 °C, mean ± SD, n = 3, read-out: IC50 (µM) ± SD, α-glucosidase inhibitory activity.

The values below come from article PMC12587786, “In vitro α-glucosidase inhibition, molecular dynamics and docking study of phenyl carbamoyl methoxy thiosemicarbazone derivatives as potential anti-diabetic agents” (Journal of Enzyme Inhibition and Medicinal Chemistry, 2025).

“Also recorded” adds a separate entry of the source. Like-named read-outs stand apart in the source and are kept apart here.

T1 sequence (P53341 whole entry): as above

What is called IC50 is the midpoint of a concentration-inhibition curve. For the compound “2-{4-[(Z)-[(carbamothioylamino)imino]methyl]-2-methoxyphenoxy}-N-(4-methylphenyl) acetamide [Compound 7i]”, the IC50 in data set [1] (setting [7]) came out at 125.9 ± 0.016 µM.
As for `COc1cc(/C=N\NC(N)=S)ccc1OCC(=O)Nc1ccccc1Cl` [7 g, 2-{4-[(Z)-[(carbamothioylamino)imino]methyl]-2-methoxyphenoxy}-N-(2-chlorophenyl) acetamid], in data set [2], the viability at 24 h, 12.5 µM came to 89.6%; the viability at 24 h, 25 µM is 66.7%; the viability at 24 h, 50 µM is 50.6%; the viability at 24 h, 100 µM is 41%. Further, in data set [1], the IC50 came to 62.2 ± 0.411 µM. Also, in data set [3], the viability at 24 h, 12.5 µM was found to be 96.2%; the viability at 24 h, 25 µM was found to be 72.4%; the viability at 24 h, 50 µM worked out at 57.3%; the viability at 24 h, 100 µM came to 27.7%.
For `COc1cc(/C=N\NC(N)=S)ccc1OCC(=O)Nc1ccccc1` [Compound 7a, 2-{4-[(Z)-[(carbamothioylamino)imino]methyl]-2-methoxyphenoxy}-N-phenylacetamide], in data set [1], the IC50 is 257 ± 0.491 µM.
On to `COc1cc(/C=N\NC(N)=S)ccc1OCC(=O)Nc1ccc(C)cc1` [Compound 7b, 2-{4-[(Z)-[(carbamothioylamino)imino]methyl]-2-methoxyphenoxy}-N-(4-methylphenyl) acetamide], for which the IC50 in data set [1] (setting [7]) came out at 151.18 ± 0.02 µM.
In the case of `CCc1ccc(NC(=O)COc2ccc(/C=N\NC(N)=S)cc2OC)cc1` [Compound 7c, 2-{4-[(Z)-[(carbamothioylamino)imino]methyl]-2-methoxyphenoxy}-N-(4-ethylphenyl) acetamide], the IC50 in data set [1] (setting [7]) is 95.99 ± 0.273 µM.
In the case of `COc1cc(C=NNC(N)=S)ccc1OCC(=O)NCc1ccccc1` [Compound 7d], in data set [1], 216.42 ± 0.025 µM corresponded to half-maximal inhibition (IC50).
Broadly, the Ki is a measure of affinity in units of concentration, obtained from inhibition or displacement. A higher Ki goes with weaker binding. On to `COc1cc(/C=N\NC(N)=S)ccc1OCC(=O)Nc1cccc(C)c1` [Compound 7e, 2-{4-[(Z)-[(carbamothioylamino)imino]methyl]-2-methoxyphenoxy}-N-(3-methylphenyl) acetamide], for which the “cytotoxic activity (in words)” value in data set [4] was “did not possess important cytotoxic activity; also recorded: low cytotoxicity”. Moreover, in data set [2], the viability at 24 h, 12.5 µM stood at 97.4%; the viability at 24 h, 25 µM came to 74.7%; the viability at 24 h, 50 µM was determined as 66.3%; the viability at 24 h, 100 µM was 57.2%. Further, in data set [1], the IC50 came to 23.95 ± 0.038 µM. In addition, in data set [5], the “cytotoxic activity (in words)” value was “did not possess important cytotoxic activity; also recorded: low cytotoxicity”. Besides, in data set [3], the viability at 24 h, 12.5 µM stood at 95.5%; the viability at 24 h, 25 µM was 84.3%; the viability at 24 h, 50 µM was 75.2%; the viability at 24 h, 100 µM was determined as 63.7%. For the same compound, in data set [6], the inhibition constant Ki worked out at 34.8 µM. For the same compound, the “Type of inhibition mechanism” value in data set [6] (Lineweaver–Burk plots) is on record as “competitive inhibitor”. Further, the “Vmax with increasing inhibitor concentration” value in data set [6] (inhibitor 0-250 µM) is “remained unchanged”.
Turning to `COc1cc(/C=N\NC(N)=S)ccc1OCC(=O)Nc1cccc([N+](=O)[O-])c1` [Compound 7f, 2-{4-[(Z)-[(carbamothioylamino)imino]methyl]-2-methoxyphenoxy}-N-(3-nitrophenyl) acetamide], in data set [1], the 50% inhibitory concentration (IC50) came to 328.17 ± 0.083 µM.
Turning to `COc1cc(/C=N\NC(N)=S)ccc1OCC(=O)Nc1ccc(Br)cc1` [Compound 7h, N-(4-bromophenyl)-2-{4-[(Z)-[(carbamothioylamino)imino]methyl]-2-methoxyphenoxy} acetamide], the IC50 in data set [1] (setting [7]) was 573.67 ± 0.043 µM.
Consider `COc1cc(/C=N\NC(N)=S)ccc1OCC(=O)Nc1cccc(C)c1C` [Compound 7j, 2-{4-[(Z)-[(carbamothioylamino)imino]methyl]-2-methoxyphenoxy}-N-(2,3-dimethylphenyl) acetamide], for which the midpoint of inhibition in data set [1], the IC50, lay at 103.91 ± 0.028 µM.
Turning to `COc1cc(/C=N\NC(N)=S)ccc1OCC(=O)Nc1ccc(Cl)cc1` [Compound 7k, 2-{4-[(Z)-[(carbamothioylamino)imino]methyl]-2-methoxyphenoxy}-N-(4-chlorophenyl) acetamide], the IC50 in data set [1] worked out at 442.41 ± 0.009 µM.
`COc1cc(/C=N\NC(N)=S)ccc1OCC(=O)Nc1ccc(C)cc1C` [Compound 7l, 2-{4-[(Z)-[(carbamothioylamino)imino]methyl]-2-methoxyphenoxy}-N-(2,4-dimethylphenyl) acetamide]: in data set [1], half-maximal inhibition (IC50) was put at 122.72 ± 0.098 µM.
Regarding `COc1ccc(NC(=O)COc2ccc(/C=N\NC(N)=S)cc2OC)cc1` [Compound 7m, 2-{4-[(Z)-[(carbamothioylamino)imino]methyl]-2-methoxyphenoxy}-N-(4-methoxyphenyl) acetamide], the IC50 in data set [1] (setting [7]) is 436.5 ± 0.062 µM.
`COc1cc(/C=N\NC(N)=S)ccc1OCC(=O)Nc1ccccc1F` [Compound 7n, 2-{4-[(Z)-[(carbamothioylamino)imino]methyl]-2-methoxyphenoxy}-N-(2-fluorophenyl) acetamide] showed an IC50 in data set [1] of 95.65 ± 0.056 µM.
